The text below walks through data of patent publication US20090203685A1, “ANTI-PROLIFERATIVE COMPOUNDS FROM A 3-ARYL-COUMARINE OR 3-ARYL-QUINOLIN-2-ONE AND USES THEREOF” (EOS (ETHICAL ONCOLOGY SCIENCE) S.P.A., priority 2006, published 2009).

By viability is commonly meant a read-out of living cells in per cent, often relative to untreated cells. By GI50 is commonly meant the concentration at which growth is held to half of that of the control. Read a low GI50 as greater sensitivity of the cells.

The subject of data set [1] is PC3. Put plainly: Cell cycle analysis, PC3. In kind it is cell-based. As to conditions: 500 nM. As for the experimental part:
(§1) The cells are pelleted by gentle centrifugation 1200 rpm/5 min/4° C., then the supernatant is discarded and the cells are fixed with 1 mL of PBS/Ethanol 70% overnight at −20° C. The tubes are then centrifuged during 5 minutes at 1200 rpm and the supernatant is removed. The pellet is then re-suspended in 450 μL of PBS before 50 μL of RNAse (1 mg/mL) and 5 μL of propidium iodide (2 mg/mL) are added. Each tube is left 30 minutes at 37° C. and immediately analysed by flow cytometry after incubation.
(§2) A biparametric dot plot representation FL3 peak vs FL3 integer is plotted and the cells located on the diagonal are gated and analysed on a histogram representing the number of cells as a function of the FL3 peak.
(§3) To assess the relative position of cursors defining relative proportion of cells in subG1, G1, S or G2 phase of the cell cycle, G1 and G2 peaks are to be defined first:
(§4) The G1 peak is defined as the major peak in absence of treatment (generally X=200);
(§5) The G2 peak is centered on the value which is twice the value of the G1 peak (generally X=400).
(§6) Cells in subG1 phase are plotted in the part of the histogram preceding the G1 peak (generally X<200) and cells in S phase are enclosed in the area between the G1 and G2 peaks.
(§7) On this graphic, subG1, G1, S and G2/M phases of the cell cycle can thus be defined.
(§8) Viability and cell cycle profile, tested with compound (01), at 500 nM: […]

The nature of data set [2]: Viability (propidium iodide staining), PC3. As to conditions: human, PC3 cells (prostate), 500 nM. In kind it is cell-based. As for the experimental part:
(§9) Propidium iodide (PI) cannot normally cross the cell membrane; it is thus excluded by viable cells but not from dying or dead cells, having a damaged membrane, where it intercalates into double-stranded nucleic acids and fluoresces when excited at 488 nm.
(§10) The cells are pelleted by gentle centrifugation 1200 rpm/5 min/4° C., then the supernatant is discarded and replaced by 1 mL of fresh medium. One hundred microliters of propidium iodide (40 μg/mL) are added to 400 μL of the cell suspension in a FACS tube and viability is measured by flow cytometry as the percentage of cells whose fluorescence recorded on FL-3 channel is comprised between 0 and 2.
as §8

Data set [3] concerns lymphoid and myeloid tumor cells. Put plainly: Viability and cell cycle profile, conclusion for lymphoid and myeloid tumor cells. Type of data set: cell-based. As to conditions: 500 nM; apoptotic cell cycle profile. On the procedure: as §9, §10, §1, §8
The subject of data set [4] is U937 cells. In words: Proliferation test ViaLight HS, U937 cells (Example 8). In kind it is cell-based, human. As to conditions: Homo sapiens, U-937, 72 h, 72 h incubation; range = multiple experiments, otherwise individual experiments. As for the experimental part:
2C Proliferation test ViaLight® HS High Sensitivity Cytotoxicity and Cell Proliferation BioAssay Kit
This protocol allows the determination of the cytostatic and cytotoxic activities of compounds to be tested on mammalian cells in culture and was carried out essentially according to the manufacturer's recommendations.
Cells are suspended in 15 mL of their respective media and are enumerated. They are then diluted in their media in order to obtain: • 2500 cells per 90 μL per well for MRC5 cells • 5000 cells per 90 μL per well for all other cell lines. Cells are then seeded in a 96 well plate, and incubated at least 4 hours in the incubator at 37° C. in 5% CO2.
The molecules to be tested are diluted in DMEM with DMSO in order to obtain the following dilutions: • dilution at 250 μM/1% DMSO • dilution at 50 μM/1% DMSO • dilution at […] • dilution at 2 μM/1% DMSO • dilution at 400 nM/1% DMSO • dilution at 80 nM/1% DMSO For each well comprising 90 μL of cell suspension, 10 μL of a solution of the compound to be tested is added, with the 6 different concentrations. The plate is then incubated during 72 hours. One control plate is contacted with 10 μL of DMEM 1% DMSO, without compound to be tested. 50 μL of lysis buffer (test Vialight® lysis buffer) is added in each well of the control plate and the plate is incubated 10 minutes under hood.
Then, 100 μL of test buffer (test Vialight® test buffer) is added in each well and the control plate is incubated during 2 minutes. The luminescence is read in each well. The mean luminescence for each type of cells is called T0.
After the 72 h incubation, in order to determine the viability, 50 μL of lysis buffer (test Vialight® lysis buffer) is added in each well of the plates and the plates are incubated 10 minutes under hood.
Then, 100 μL of test buffer (test Vialight® test buffer) is added in each well and the plates are incubated during 2 minutes. The luminescence is read in each well. For each type of cell, the mean luminescence in the well not containing the compound is called C72 and the mean luminescence in well containing a given concentration of a compound to be tested is called T72. For each dilution (concentration of compound to be tested), T0 and T72 values are compared.
The graph is plotted for the different concentrations of compound and • GI50 (50% of growth inhibitory) is determined, this is the dose producing 50% of cell growth (intersection at Y=50); • TGI (total growth inhibitory) is determined on the graph, this is the dose producing the total arrest of the cell growth (intersection at Y=0); and • LC50 (50% of lethal concentration) is determined, this is the dose producing the death of 50% of the cells (intersection at Y=−50).
Following the protocol described in Example 2C, different compounds according to the invention have been tested for their cytostatic and cytotoxic activities on mammalian cells in culture (specifically U937 cells).
The GI50 (50% of growth inhibitory) has been determined for all the following compounds, i.e. the dose producing 50% of cell growth inhibition.
Where the GI50 provided is in the form of a range, it means that multiple experiments, whose results fall within the range indicated, were performed. Otherwise, results of individual experiments are provided.

For data set [5], the system named is CEM. In words: Cell cycle analysis, CEM. Type of data set: cell-based. The conditions noted are these: 500 nM. On the procedure: as §1, §2, §3, §4, §5, §6, §7, §8
Data set [6] deals with prostate and lung tumor cells. In words: Viability and cell cycle profile, conclusion for prostate and lung tumor cells. Type of data set: cell-based. The conditions noted are these: 500 nM; cell cycle arrest at entry into mitosis. As for the experimental part: as §9, §10, §1, §8
In data set [7] the test system is NCI-H460. In words: Cell cycle analysis, NCI-H460. Type of data set: cell-based, human. As to conditions: 500 nM. On the procedure:
as §1, §2, §3, §4, §5, §6, §7, §8

The nature of data set [8]: Viability (propidium iodide staining), A375. Type of data set: cell-based. As to conditions: human, A375 cells (melanoma), 500 nM. As for the experimental part:
as §9, §10, §8

Data set [9] is described as follows: Viability (propidium iodide staining), MRC5. In kind it is cell-based. As to conditions: human, MRC5 non-transformed fibroblasts, 500 nM. On the procedure:
as §9, §10, §8

Data set [10] concerns MRC5. Put plainly: Viability (propidium iodide staining), MRC5. In kind it is cell-based. As to conditions: 500 nM. On the procedure: as §9, §10, §8

As for `COc1cc(NC(=S)NC(=O)/C=C/c2ccco2)ccc1-c1cc2ccccc2oc1=O` [Compound 01, (2E)-3-(2-furyl)-N-({[3-methoxy-4-(2-oxo-2H-chromen-3-yl)phenyl]amino}carbonothioyl)acrylamide], the “Cell cycle profile - 72 h” value is recorded as “G2/M accumulation” in data set [1], “Strong sub-G1” in data set [5], “G2/M accumulation” in data set [7] (G2/M phase fraction) and “Strong sub-G1” in [7] (sub-G1 fraction). The results for the viability at 48 h, 0.5 µM in [2] (48 h), in [8] (48 h) and in data set [9] (48 h) were 92%, 65% and 94%, respectively. The values for the viability at 72 h, 0.5 µM in data set [2] (72 h), in [8] (72 h) and in data set [9] (72 h) were 90%, 35% and 89%, respectively. Besides, in data set [3], the “Effect on lymphoid and myeloid tumor cells” value is listed as “cytotoxic effect”. This molecule showed a GI50 in data set [4] of 59 to 200 nM. Further, the “Effect on prostate and lung tumor cells” value in data set [6] is listed as “cytostatic effect”. In [10], the “Effect on control non-transformed cells (MRC5)” value was “unaffected”.
